Reference: article PMC5618426, “APETx4, a Novel Sea Anemone Toxin and a Modulator of the Cancer-Relevant Potassium Channel KV10.1” (Marine Drugs, 2017)
Several values for one entry are separate records, joined by “and”; a condition that tells them apart may be missing. Equal values may be shown once. Read-outs that look alike come from different tables or passages of the source. Positions of bridges follow the written chain, without caps; N, C: chain ends. No end group written: not given here.

Key:
hKV10.1a (hEag1) = hKV10.1a (hEag1) (Homo sapiens, UniProt O95259); assay: two-electrode voltage clamp, KV10.1 in Xenopus laevis oocytes; format: cell-based
Description: For the expression of the ion channels (rNaV1.4, hNaV1.5, mNaV1.6, hKV1.1, rKV1.3, hKV1.4, hKV1.5, hKV2.1, hKV10.1a and hKV11.1,) in Xenopus oocytes, the plasmids were linearized and subsequently transcribed using the T7 or SP6 mMESSAGE-mMACHINE transcription kit (Ambion®, Carlsbad, CA, USA).
Stage V-VI Xenopus laevis oocytes were isolated by partial ovariectomy. The animals were anesthetized by a 15 min submersion in 0.1% tricaine methane sulfonate (pH 7.0). Isolated oocytes were defolliculated with 2 mg/mL collagenase.
Defolliculated oocytes were injected with 50 nL of cRNA at a concentration of 1 ng/nL using a micro-injector (Drummond Scientific®, Broomall, PA, USA). The oocytes were incubated in a solution containing (in mM): NaCl, 96; KCl, 2; CaCl2, 1.8; MgCl2, 2 and HEPES, 5 (pH 7.4), supplemented with 50 mg/L gentamycin sulfate.
Two-electrode voltage-clamp recordings were performed at room temperature (18–22 °C) using an Geneclamp 500B Voltage and Patch Clamp Amplifier (Axon Instruments, Union City, CA, USA, controlled by a Axon Digidata 1550 Low-Noise Data Acquisition System (Axon Instruments). Whole cell currents from oocytes were recorded 1–4 days after injection. The normal bath solution (ND96) composition was (in mM): NaCl, 96; KCl, 2; CaCl2, 1.8; MgCl2, 2 and HEPES, 5 (pH 7.4). The high potassium solution (HK) composition was in mM): NaCl, 2; KCl, 96; CaCl2, 1.8; MgCl2, 2 and HEPES, 5 (pH 7.4). Voltage and current electrodes were filled with 3 M KCl. Resistances of both electrodes were kept between 0.5 and 1.5 MΩ. The elicited KV1.x end KV2.1 currents were filtered at 500 Hz and sampled at 2 kHz, KV10.1 currents were filtered at 1 kHz and sampled at 2 kHz, hERG currents were filtered at 1 kHz and sampled at 10 kHz and the sodium currents were filtered at 2 kHz and sampled at 20 kHz using a four-pole low-pass Bessel filter. Leak subtraction was performed using a -P/4 protocol.
KV10.1 currents were evoked by 2 s depolarizing pulses to 0 mV from a holding potential of −90 mV. KV11.1 (hERG) peak and tail currents were generated by a 2.5 s prepulse from −90 mV to 40 mV followed by a 2.5 s pulse to −120 mV. KV1.x channel currents were evoked by 500 ms depolarizations to 0 mV from a holding potential of −90 mV followed by a 500 ms pulse to −50 mV. KV2.1 currents were elicited by 500 ms pulses to +20 mV from a holding potential of −90 mV. NaV currents were evoked by a 100 ms depolarizations to 0 mV from the holding potential.
[…]. The curve was fitted with the logistic dose-response equation, y = A1−A2/1+ (IC50/[toxin])^nH + A2 where y represents the percentage of current inhibition, A1 the initial inhibition at the lowest toxin concentration (0%), A2 the final inhibition at the highest toxin concentration, IC50 the half maximal inhibitory toxin concentration and ^nH the Hill coefficient.
The voltage-dependent activation of the KV10.1 channels was investigated by 1000 ms activating steps from the holding potential −90 mV to 65 mV with 5 mV increments. The normalized current amplitudes were plotted against the corresponding pulse potentials and fitted with the Boltzmann equation, y = A1−A2/1+ e^(V−V1/2)/k + A2, where y represents the normalized current (I/Imax), A1 is the initial y-value(-∞) and A2 is the final y-value, Imax is the maximal current, V is the test voltage, V1/2 is the half-maximal voltage and k is the slope factor.
The voltage-dependent inactivation of KV10.1 channels was studied by 1.5 s prepulses from the holding potential ranging from −140 mV to 30 mV with 10 mV steps. These pulses were followed by a 0.5 s test pulse to 30 mV [17]. The normalized peak current amplitudes (I2/I2,max) measured during the test pulse and were plotted against the prepulses and fitted with the Boltzmann equation.
All electrophysiological data are presented as means ± S.E.M of n ≥ 3 independent experiments unless otherwise indicated. […]

NIH-3T3 = assay: proliferation (IncuCyte confluency); format: cell-based, mouse; conditions: cell confluency (%) over time, n = 4 wells
Description: The cell proliferation was quantified in terms of cell confluency (%) over time; data points were collected every hour. […] LNCaP, it is presumed that the observed effect cannot only be attributed to KV10.1 inhibition (Figure S5).
Cell lines SH-SY5Y (ACC 209), LNCaP (ACC 256) and NIH-3T3 (ACC 59) were purchased from DSMZ (Germany). MDA-MB-435S (HTB 129) and hTERT RPE-1 (CRL 4000) were obtained from ATCC (USA). Cell lines were cultured in their recommended media supplemented with 10% or 15% FCS (PAA laboratories, Cölbe, Germany) at 37 °C in humidified 5% CO2 atmosphere. All media were purchased from ThermoFisher Scientific (Waltham, MA, USA).
Cell proliferation, cytotoxicity and apoptosis were assessed in a 96-well microtiter plate by live-cell imaging using an IncuCyte Zoom System (Essen BioScience, Welwyn Garden City, UK). Cell proliferation was monitored in terms of cell confluency (%). Cell cytotoxicity was assessed by the CellTox Green Dye assay (Promega, Madison, WI, USA). The IncuCyte Caspase-3/7 apoptosis assay (Essen BioScience, UK) was used to evaluate the effect of APETx4 on the apoptotic pathway.
Live-cell imaging data were collected from the IncuCyte Zoom software and analyzed using GraphPad Prism 6 software. Proliferation was measured as Phase Object Confluence (%), cytotoxicity and apoptosis were measured as Green Object Count (1/mm²). Data points were collected every hour. […]

[1] = concentration-response curve, logistic fit

hKV10.1a (hEag1), sequence (O95259 other isoform, or with tags, fused parts or gaps): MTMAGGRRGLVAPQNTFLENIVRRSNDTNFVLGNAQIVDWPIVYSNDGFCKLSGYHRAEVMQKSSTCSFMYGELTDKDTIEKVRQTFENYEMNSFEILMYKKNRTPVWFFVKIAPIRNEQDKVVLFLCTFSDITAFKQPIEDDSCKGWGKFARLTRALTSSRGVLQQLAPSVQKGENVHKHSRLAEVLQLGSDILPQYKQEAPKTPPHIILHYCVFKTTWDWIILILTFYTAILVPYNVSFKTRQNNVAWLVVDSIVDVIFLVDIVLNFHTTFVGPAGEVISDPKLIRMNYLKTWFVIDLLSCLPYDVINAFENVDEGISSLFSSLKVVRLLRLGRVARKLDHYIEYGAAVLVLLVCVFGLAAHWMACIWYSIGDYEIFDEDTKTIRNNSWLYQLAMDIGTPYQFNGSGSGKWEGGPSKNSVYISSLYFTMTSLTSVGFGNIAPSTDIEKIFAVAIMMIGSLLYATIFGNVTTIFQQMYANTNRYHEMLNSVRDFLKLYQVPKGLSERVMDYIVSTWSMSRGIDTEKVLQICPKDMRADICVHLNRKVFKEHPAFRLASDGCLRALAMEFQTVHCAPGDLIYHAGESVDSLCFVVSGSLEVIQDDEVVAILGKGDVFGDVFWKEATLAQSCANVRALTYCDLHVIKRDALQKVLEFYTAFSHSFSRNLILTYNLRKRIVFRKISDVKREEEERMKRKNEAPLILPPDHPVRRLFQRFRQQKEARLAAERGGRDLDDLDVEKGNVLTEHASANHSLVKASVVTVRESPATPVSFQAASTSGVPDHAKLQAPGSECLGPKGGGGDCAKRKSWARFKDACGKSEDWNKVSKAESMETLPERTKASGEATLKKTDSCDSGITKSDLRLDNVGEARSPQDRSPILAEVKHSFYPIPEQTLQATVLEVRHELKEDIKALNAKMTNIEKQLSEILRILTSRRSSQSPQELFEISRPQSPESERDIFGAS

GTTCYCGKTIGIYWFGKYSCPTNRGYTGSCPYFLGICCYPVD (disulfide 4-37, 6-30, 20-38) [APETx4]
inhibition of the outward KV10.1 current (hKV10.1a (hEag1); 1.6 µM APETx4, 2 s pulse to 0 mV from −90 mV, ND96, pH 7.4, 18–22 °C, mean ± SEM, n = 3): highest activity on KV10.1 | inhibition at 1.6 µM (hKV10.1a (hEag1); 1.6 µM APETx4, 2 s pulse to 0 mV from −90 mV, ND96, pH 7.4, 18–22 °C, mean ± SEM, n = 3, read-out: inhibition of the outward KV10.1 current): 76 ± 2% | slope factor of activation (hKV10.1a (hEag1); 1.6 µM APETx4, HK solution (96 mM Ko), control 15.3 ± 1.4, n = 3, NS): 13.9 ± 0.8 | half-maximal voltage V1/2 of activation (hKV10.1a (hEag1); 1.6 µM APETx4, HK solution (96 mM Ko), control 41.3 ± 1.4 mV, n = 3): 50.9 ± 0.8 mV | shift of V1/2 (hKV10.1a (hEag1); 1.6 µM APETx4, HK solution (96 mM Ko), n = 3, p < 0.05): 9.6 ± 1.7 mV | shift of the activation curve towards more positive potentials (hKV10.1a (hEag1); 1.6 µM APETx4, ND96 (2 mM Ko), Boltzmann fit, n = 3, p < 0.05): 17.7 ± 1.1 mV | slope factor k of activation (hKV10.1a (hEag1); 1.6 µM APETx4, ND96 (2 mM Ko), control 20.7 ± 0.6 mV, n = 3, p < 0.05): 17.2 ± 0.3 mV | half-maximal voltage V1/2 of activation (hKV10.1a (hEag1); 1.6 µM APETx4, ND96 (2 mM Ko), control 26.4 ± 0.9 mV, n = 3, p < 0.05): 44.1 ± 0.7 mV | rise time tr (10% to 90%) (hKV10.1a (hEag1); 1.6 µM APETx4, control 653 ± 42 ms, n = 3, p < 0.05): 1246 ± 96 ms | time constant τ of KV10.1 activation (hKV10.1a (hEag1); 1.6 µM APETx4, exponential fit, control 376 ± 60 ms, n = 3, p < 0.05): 1209 ± 229 ms | reduction of KV10.1 current, pulse to 65 mV (hKV10.1a (hEag1); 1.6 μM APETx4, from the holding potential, non-normalized inhibited current (1-It/Ic)): 29 ± 6% | current reduction upon first stimulation after closed-state incubation (hKV10.1a (hEag1); 1.6 µM APETx4, held at −90 mV for 10 min during addition, pulse to 0 mV, versus control current): 85.2 ± 1.9% | inhibition at 1.6 µM (hKV10.1a (hEag1); 1.6 μM APETx4, non-normalized inhibited current (1-It/Ic), read-out: inhibition of KV10.1 current, pulse −90 mV to 0 mV): 79 ± 4% | time constant τ of onset of inhibition (normalized current decrease) (hKV10.1a (hEag1); 1.6 µM APETx4, one phase decay fit of I/Imax versus incubation time): 97 ± 7 s | voltage dependence of current inhibition (hKV10.1a (hEag1); 1.6 μM APETx4, reduced inhibition at more positive potentials, HK solution): a similar effect was observed | IC50 (hKV10.1a (hEag1); 7 concentrations, logistic fit, 2 s pulse to 0 mV from −90 mV, ND96, mean ± SEM, n ≥ 3, read-out: IC50 for KV10.1 current inhibition): 1.01 ± 0.01 µM | inward current at negative pulse potentials (hKV10.1a (hEag1); HK solution (96 mM Ko), after toxin addition (1.6 µM)): no inward currents were observed | Hill coefficient (hKV10.1a (hEag1); [1]): 3.8 ± 0.3 and ~ 4 | maximal current inhibition (hKV10.1a (hEag1); [1]): 88.3 ± 0.9% | inactivation properties of KV10.1 (hKV10.1a (hEag1); two-pulse protocol, prepulse −140 to 30 mV, test pulse 30 mV, control or toxin condition): No apparent inactivation was observed | antiproliferative effect (NIH-3T3): without affecting the proliferation of healthy fibroblast cells | cytotoxic effect in Xenopus oocytes (Xenopus oocytes): cytotoxic effect is not observed
